Values belong to the compound of their own block, whether it stands above or below them. Active and inactive are the calls of the source. The calls are words filed in the database; no cut-off is given here.
Experiments:
[1] = Antiproliferative activity against human A2780 cells measured after 72 hrs by MTT assay; assay type: functional; details: A2780, 72 h
[2] = Antiproliferative activity against human HCT116 cells measured after 72 hrs by MTT assay; assay type: functional; details: HCT-116, 72 h
[3] = Cell cycle arrest in human A2780 cells assessed as accumulation at S-phase at 5 times GI50 measured after 24 hrs by propidium iodide staining-based FACS analysis (reference value: 19%); assay type: functional
[4] = Cell cycle arrest in human A2780 cells assessed as accumulation at G1-phase at 5 times GI50 measured after 24 hrs by propidium iodide staining-based FACS analysis (reference value: 53%); assay type: functional
[5] = Cell cycle arrest in human A2780 cells assessed as accumulation at G2/M-phase at GI50 measured after 24 hrs by propidium iodide staining-based FACS analysis (reference value: 26%); assay type: functional
[6] = Cell cycle arrest in human A2780 cells assessed as accumulation at G2/M-phase at 5 times GI50 measured after 24 hrs by propidium iodide staining-based FACS analysis (reference value: 26%); assay type: functional
A2780 [7] = experiment: Induction of apoptosis in human A2780 cells assessed as early apoptotic cells at GI50 measured after 24 hrs by Annexin V/propidium iodide staining-based FACS analysis (reference value: 2.81%); assay type: functional
A2780 [8] = experiment: Induction of apoptosis in human A2780 cells assessed as early apoptotic cells at 5 times GI50 measured after 24 hrs by Annexin V/propidium iodide staining-based FACS analysis (reference value: 2.81%); assay type: functional
A2780 [9] = experiment: Induction of apoptosis in human A2780 cells assessed as late apoptotic cells at 5 times GI50 measured after 24 hrs by Annexin V/propidium iodide staining-based FACS analysis (reference value: 4.23%); assay type: functional
A2780 [10] = experiment: Induction of apoptosis in human A2780 cells assessed as necrotic cells at 5 times GI50 measured after 24 hrs by Annexin V/propidium iodide staining-based FACS analysis (reference value: 0.34%); assay type: functional
A2780 [11] = experiment: Induction of apoptosis in human A2780 cells assessed as downregulation of Mcl1 level at 200 to 1000 nM measured after 24 hrs by Western blot analysis; assay type: functional, cell-based
[12] = Cell cycle arrest in human A2780 cells assessed as accumulation at G1-phase at GI50 measured after 24 hrs by propidium iodide staining-based FACS analysis (reference value: 53%); assay type: functional
A2780 [13] = experiment: Induction of apoptosis in human A2780 cells assessed as late apoptotic cells at GI50 measured after 24 hrs by Annexin V/propidium iodide staining-based FACS analysis (reference value: 4.23%); assay type: functional
A2780 [14] = experiment: Induction of apoptosis in human A2780 cells assessed as necrotic cells at GI50 measured after 24 hrs by Annexin V/propidium iodide staining-based FACS analysis (reference value: 0.34%); assay type: functional
A2780 [15] = experiment: Induction of apoptosis in human A2780 cells assessed as viable cells at 5 times GI50 measured after 24 hrs by Annexin V/propidium iodide staining-based FACS analysis (reference value: 92.6%); assay type: functional
[16] = Cell cycle arrest in human A2780 cells assessed as accumulation at Sub-G1 phase at 5 times GI50 measured after 24 hrs by propidium iodide staining-based FACS analysis (reference value: 2%); assay type: functional
A2780 [17] = experiment: Induction of apoptosis in human A2780 cells assessed as viable cells at GI50 measured after 24 hrs by Annexin V/propidium iodide staining-based FACS analysis (reference value: 92.6%); assay type: functional
[18] = Cell cycle arrest in human A2780 cells assessed as accumulation at Sub-G1 phase at GI50 measured after 24 hrs by propidium iodide staining-based FACS analysis (reference value: 2%); assay type: functional
A2780 [19] = experiment: Induction of apoptosis in human A2780 cells assessed as cleaved PARP level at 200 to 1000 nM measured after 24 hrs by Western blot analysis; assay type: functional, cell-based
[20] = Cell cycle arrest in human A2780 cells assessed as accumulation at S-phase at GI50 measured after 24 hrs by propidium iodide staining-based FACS analysis (reference value: 19%); assay type: functional
[21] = molecular target: Serine/threonine-protein kinase PLK1 (Homo sapiens) (UniProt P53350); details: A2780, 200 to 1000 nM
Description: Inhibition of Plk1 in human A2780 cells assessed as reduction in CDC25C phosphorylation at Ser198 residue at 200 to 1000 nM measured after 24 hrs by Western blot analysis

[22] = Antiproliferative activity against human C4-2B cells measured after 72 hrs by MTT assay; assay type: functional; details: LNCaP C4-2B
[23] = Antiproliferative activity against human HT-29 cells measured after 72 hrs by MTT assay; assay type: functional; details: HT-29, 72 h
[24] = Antiproliferative activity against human PANC1 cells measured after 72 hrs by MTT assay; assay type: functional; details: PANC-1, 72 h
[25] = Antiproliferative activity against human DU145 cells measured after 72 hrs by MTT assay; assay type: functional; details: DU-145, 72 h
[26] = Antiproliferative activity against human MCF7 cells measured after 72 hrs by MTT assay; assay type: functional; details: MCF7, 72 h
[27] = Antiproliferative activity against human 22Rv1 cells measured after 72 hrs by MTT assay; assay type: functional, CWR22R; details: 22Rv1, 72 h
[28] = molecular target: Serine/threonine-protein kinase PLK1 (Homo sapiens) (UniProt P53350); experiment: Inhibition of Plk1 in human A2780 cells assessed as reduction in CDC25C phosphorylation at Ser198 residue at 300 to 3000 nM measured after 24 hrs by Western blot analysis; assay type: cell-based
[29] = Antiproliferative activity against human KM12 cells measured after 72 hrs by MTT assay; assay type: functional; details: KM12, 72 h
[30] = Antiproliferative activity against human DaOY cells measured after 72 hrs by MTT assay; assay type: functional
[31] = Cytotoxicity against human MRC5 cells assessed as reduction in cell viability measured after 72 hrs by MTT assay; assay type: toxicity, cell-based
[32] = Cytotoxicity against human WI38 cells assessed as reduction in cell viability measured after 72 hrs by MTT assay; assay type: toxicity, cell-based, WI-38
[33] = Antiproliferative activity against human LNCAP cells measured after 72 hrs by MTT assay; assay type: functional
[34] = Antiproliferative activity against human PC3 cells measured after 72 hrs by MTT assay; assay type: functional; details: PC-3, 72 h
A2780 [35] = experiment: Induction of apoptosis in human A2780 cells assessed as cleaved PARP level at 300 to 3000 nM measured after 24 hrs by Western blot analysis; assay type: functional, cell-based
A2780 [36] = experiment: Induction of apoptosis in human A2780 cells assessed as downregulation of Mcl1 level at 300 to 3000 nM measured after 24 hrs by Western blot analysis; assay type: functional, cell-based
[37] = Antiproliferative activity against human COLO205 cells measured after 72 hrs by MTT assay; assay type: functional; details: COLO 205, 72 h

Sequence of Serine/threonine-protein kinase PLK1 (Homo sapiens) (P53350 whole entry): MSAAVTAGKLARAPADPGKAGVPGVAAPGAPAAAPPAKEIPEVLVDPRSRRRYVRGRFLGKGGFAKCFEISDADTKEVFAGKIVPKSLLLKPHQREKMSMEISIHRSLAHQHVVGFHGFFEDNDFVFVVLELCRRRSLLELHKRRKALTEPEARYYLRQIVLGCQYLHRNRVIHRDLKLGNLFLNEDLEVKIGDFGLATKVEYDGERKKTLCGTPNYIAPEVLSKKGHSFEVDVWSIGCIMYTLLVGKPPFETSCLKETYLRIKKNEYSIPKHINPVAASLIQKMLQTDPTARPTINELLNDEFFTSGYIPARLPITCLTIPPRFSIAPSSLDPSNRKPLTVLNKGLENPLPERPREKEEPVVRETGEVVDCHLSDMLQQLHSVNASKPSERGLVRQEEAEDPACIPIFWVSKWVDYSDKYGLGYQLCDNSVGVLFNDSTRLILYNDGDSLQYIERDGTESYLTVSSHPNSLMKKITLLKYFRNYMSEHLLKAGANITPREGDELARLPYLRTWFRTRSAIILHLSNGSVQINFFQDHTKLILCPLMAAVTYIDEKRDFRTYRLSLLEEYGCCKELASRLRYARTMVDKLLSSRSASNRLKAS

Structure (SMILES): COc1cc(OC)c(/C=C/S(=O)(=O)Nc2ccc(Cl)nc2)c(OC)c1
GI50 [1]: 2600 nM
GI50 [2]: 5640 nM

Structure (SMILES): CCOc1cc(OC)cc(OC)c1/C=C/S(=O)(=O)Nc1ccc(OC)nc1
GI50 [1]: 470 nM
GI50 [2]: 420 nM

Structure (SMILES): COc1cc(OC)c(/C=C/S(=O)(=O)Nc2ccc(OC)nc2)c(OC)c1
GI50 [1]: 380 nM
GI50 [2]: 1000 nM

Structure (SMILES): COc1cc(OC)c(/C=C/S(=O)(=O)Nc2cnc(Cl)cn2)c(OC)c1
GI50 [1]: > 10000 nM
GI50 [2]: > 10000 nM

Structure (SMILES): COc1cc(OC)c(/C=C/S(=O)(=O)Cc2nc(N)ncc2OC)c(OC)c1
GI50 [1]: > 10000 nM
GI50 [2]: > 10000 nM

Structure (SMILES): COc1cc(OC)c(/C=C/S(=O)(=O)Nc2ccc(Cl)cc2)c(OC)c1
GI50 [1]: > 10000 nM
GI50 [2]: > 10000 nM

Structure (SMILES): COc1cc(OC)c(/C=C/S(=O)(=O)Cc2nc(Cl)ncc2OC)c(OC)c1
GI50 [1]: > 10000 nM
GI50 [2]: > 10000 nM

inhibition [21]: Active
Structure (SMILES): COc1cc(OC)c(/C=C/S(=O)(=O)Cc2ccc(OC)c(NCC(=O)[O-])c2)c(OC)c1.[Na+] [RIGOSERTIB SODIUM]
Activity [3]: 17%
Activity [4]: 20%
Activity [5]: 28%
Activity [6]: 33%
Activity (A2780 [7]): 5.16%
GI50 [1]: 40 nM
Activity (A2780 [8]): 27.41%
Activity (A2780 [9]): 2.25%
Activity (A2780 [10]): 0.29%
Activity (A2780 [11]): Active
Activity [12]: 48%
Activity (A2780 [13]): 2.75%
Activity (A2780 [14]): 0.25%
Activity (A2780 [15]): 69.9%
Activity [16]: 30%
Activity (A2780 [17]): 91.82%
Activity [18]: 5%
Activity (A2780 [19]): Active
Activity [20]: 19%
GI50 [2]: 60 nM

Structure (SMILES): COc1ccc(NS(=O)(=O)/C=C/c2c(OC)cc(OC)cc2OC)cc1
GI50 [1]: 10 nM
GI50 [2]: 10 nM

Structure (SMILES): COc1cc(OC)c(/C=C/S(=O)(=O)Cc2cnc(Cl)cn2)c(OC)c1
GI50 [1]: 4760 nM
GI50 [2]: > 10000 nM

Structure (SMILES): COc1cc(OC)c(/C=C/S(=O)(=O)Cc2cnc(OC)c(OC)c2)c(OC)c1
GI50 [1]: 930 nM
GI50 [2]: 2810 nM

inhibition [28]: Active
Structure (SMILES): CCOc1ccc(NS(=O)(=O)/C=C/c2c(OC)cc(OC)cc2OC)cc1
Activity [3]: 16%
GI50 [22]: 450 nM
GI50 [23]: 580 nM
GI50 [24]: 300 nM
Activity [4]: 21%
GI50 [25]: 520 nM
Activity [5]: 29%
Activity [6]: 44%
GI50 [26]: 530 nM
Activity (A2780 [7]): 10.03%
GI50 [27]: 530 nM
GI50 [1]: 310 nM
Activity (A2780 [8]): 20.22%
Activity (A2780 [9]): 7.57%
Activity (A2780 [10]): 1.17%
Activity [12]: 50%
Activity (A2780 [13]): 5.92%
GI50 [29]: 340 nM
Activity (A2780 [14]): 0.78%
GI50 [30]: 340 nM
Activity (A2780 [15]): 70.89%
GI50 at 72 h [31]: > 10000 nM
GI50 at 72 h [32]: > 10000 nM
Activity [16]: 19%
Activity (A2780 [17]): 83.21%
GI50 [33]: 520 nM
Activity [18]: 5%
GI50 [34]: 600 nM
Activity (A2780 [35]): Active
Activity (A2780 [36]): Active
GI50 [37]: 590 nM
Activity [20]: 15%
GI50 [2]: 350 nM

Structure (SMILES): CNc1ncc(OC)c(CS(=O)(=O)/C=C/c2c(OC)cc(OC)cc2OC)n1
GI50 [1]: 7540 nM
GI50 [2]: > 10000 nM

Structure (SMILES): CCOc1cnc(CS(=O)(=O)/C=C/c2c(OC)cc(OC)cc2OC)cn1
GI50 [1]: 540 nM
GI50 [2]: 1280 nM

Structure (SMILES): COc1cc(OC)c(/C=C/S(=O)(=O)Cc2cnc(OC)cn2)c(OC)c1
GI50 [1]: 490 nM
GI50 [2]: 950 nM

— ChEMBL document CHEMBL3867470, “Synthesis and biological evaluation of heteroaryl styryl sulfone derivatives as anticancer agents” (Bioorg Med Chem Lett, 2016)
